Results: ChEMBL document CHEMBL5370612, “Cytotoxic Epipolythiodioxopiperazines from the Deep-Sea-Derived Fungus Exophiala mesophila MCCC 3A00939” (J Nat Prod, 2023)

Tests used:
[1] = Cytotoxicity against human L02 cells by SRB method; format: toxicity, cell-based
[2] = tested on: K562; assay: Cytotoxicity against human K562 cells by MTT method; format: functional, cell-based
[3] = tested on: ASPC1; assay: Cytotoxicity against human ASPC1 cells by SRB method; format: functional, cell-based
[4] = tested on: H69AR; assay: Cytotoxicity against human NCI-H69AR cells by SRB method; format: functional, cell-based
[5] = tested on: MDA-MB-231; assay: Cytotoxicity against human MDA-MB-231 cells by SRB method; format: functional, cell-based

**Q.** With `CS[C@@]12CC3=COC=C[C@H](O)[C@H]3N1C(=O)[C@]1(SC)CC3=COC=C[C@H](O)[C@H]3N1C2=O` as the compound, how does the IC50 [1] read?
**A.** Its IC50 is over 30 µM.

**Q.** And the IC50 [2]?
**A.** Its IC50 is over 30 µM.

**Q.** And the IC50 [3]?
**A.** The IC50 was over 30 µM.

**Q.** What about the IC50 [4] of the same compound?
**A.** The IC50 was over 30 µM.

**Q.** What about the IC50 [5] of the same compound?
**A.** The IC50 was over 30 µM.

**Q.** What does the source list for `O=C(Cc1ccccc1)O[C@H]1C=COC=C2C[C@@]34SSSS[C@]5(CC6=COC=C[C@H](O)[C@H]6N5C3=O)C(=O)N4[C@@H]21`?
**A.** IC50 [1]: 18 µM; IC50 [2]: 3.1 µM; IC50 [3]: 25 µM; IC50 [4]: 3.6 µM; IC50 [5]: 4.3 µM

**Q.** For `CS[C@@]12CC3=COC=C[C@H](OC(=O)CC(C)=C(C)C)[C@H]3N1C(=O)[C@]1(SC)CC3=COC=C[C@H](O)[C@H]3N1C2=O`, which IC50 [1] is on record?
**A.** Its IC50 is over 30 µM.

**Q.** What about the IC50 [2] of the same compound?
**A.** Its IC50 is over 30 µM.

**Q.** What about the IC50 [3] of the same compound?
**A.** The IC50 was over 30 µM.

**Q.** And the IC50 [4]?
**A.** The IC50 was over 30 µM.

**Q.** And the IC50 [5]?
**A.** The IC50 was over 30 µM.

**Q.** For `CC(=O)O[C@H]1C=COC=C2C[C@@]34SS[C@]5(CC6=COC=C[C@H](O)[C@H]6N5C3=O)C(=O)N4[C@@H]21` [ARANOTIN], which IC50 [1] is on record?
**A.** The IC50 was 16 µM.

**Q.** What about the IC50 [2] of the same compound?
**A.** Its IC50 is 1.4 µM.

**Q.** And the IC50 [3]?
**A.** The IC50 was 11 µM.

**Q.** And the IC50 [4]?
**A.** Its IC50 is 1.7 µM.

**Q.** What about the IC50 [5] of the same compound?
**A.** The IC50 was 0.7 µM.

**Q.** Which results are given for `CS[C@@]12CC3=COC=C[C@H](OC(C)=O)[C@H]3N1C(=O)[C@]1(SC)CC3=COC=C[C@H](OC(=O)CC(C)=C(C)C)[C@H]3N1C2=O`?
**A.** IC50 [1]: > 30 µM; IC50 [2]: > 30 µM; IC50 [3]: > 30 µM; IC50 [4]: > 30 µM; IC50 [5]: 29 µM

**Q.** Which IC50 [1] does the source give for `CC(C)=C(C)CC(=O)O[C@H]1C=COC=C2C[C@@]34SSSS[C@]5(CC6=COC=C[C@H](O)[C@H]6N5C3=O)C(=O)N4[C@@H]21` here?
**A.** The IC50 was 8.5 µM.

**Q.** What about the IC50 [2] of the same compound?
**A.** Its IC50 is 2.3 µM.

**Q.** What about the IC50 [3] of the same compound?
**A.** Its IC50 is 13 µM.

**Q.** And the IC50 [4]?
**A.** The IC50 was 5.9 µM.

**Q.** What about the IC50 [5] of the same compound?
**A.** The IC50 was 3.7 µM.

**Q.** Which results are given for `CS[C@@]12CC3=COC=C[C@H](OC(C)=O)[C@H]3N1C(=O)[C@]1(SC)CC3=COC=C[C@H](OC(C)=O)[C@H]3N1C2=O`?
**A.** IC50 [1]: > 30 µM; IC50 [2]: > 30 µM; IC50 [3]: > 30 µM; IC50 [4]: > 30 µM; IC50 [5]: > 30 µM

**Q.** What does the source list for `COc1cccc2c1C(=O)c1c(O)c3c(c(O)c1C2=O)C[C@@](O)(C(=O)CO)C[C@@H]3O[C@H]1C[C@H](N)[C@H](O)[C@H](C)O1` [DOXORUBICIN]?
**A.** IC50 [1]: < 1 µM; IC50 [2]: < 1 µM; IC50 [3]: < 1 µM; IC50 [4]: < 1 µM; IC50 [5]: < 1 µM

**Q.** Which results are given for `CS[C@@]12CC3=COC=C[C@H](OC(C)=O)[C@H]3N1C(=O)[C@]1(SC)CC3=COC=C[C@H](O)[C@H]3N1C2=O`?
**A.** IC50 [1]: > 30 µM; IC50 [2]: > 30 µM; IC50 [3]: > 30 µM; IC50 [4]: > 30 µM; IC50 [5]: > 30 µM
